15 molecules from patent publication US12479849B2, “EGFR inhibitors for the treatment of cancer” (Hoffmann-La Roche Inc., priority 2019, dated 2025) can be followed below.

The target of the test is T1, EGFR TMLRCS (Homo sapiens, UniProt P00533, C797S/L858R/T790M).
T1 construct: host or cells: BaF3-TMLRCS (Ba/F3 cells, kept under puromycin selection)
Kind of test: HTRF Phospho EGFR TMLRCS Assay (Cellular). The format is cell-based. Particulars: BaF3-TMLRCS cell line, 4 hours incubation, Phospho-EGFR HTRF readout. The procedure: HTRF Phospho EGFR TMLRCS Assay (Cellular)
BaF3-TMLRCS cell line were obtained from Crownbio (San Diego, CA, USA). Cells were maintained at 37° C., 5% CO2 in RPMI ATCC (Gibco 31870)+2 mM Glutamine+0.5 μg/ml Puromycin supplemented with 10% fetal bovine serum (FBS) (Gibco).
Cells are transferred as above to Greiner Bio-One, Nr. 784-08 micro-titerplate at 20000 cells/well in 12.5 μl of growth medium/well after the plates had been pre-filled with 12.5 nl of DMSO solutions of the to be tested compounds (in dose response) or DMSO only. After spinning the plates at 300×g for 30 seconds the cells were incubated for 4 hours at 37 C, 5% CO2, 95% humidity. The cells were lysed by adding to the compound mix 4 μl/well of the supplemented lysis buffer (Cis-bio, Phospho-EGFR HTRF kit, 64EG1PEH), followed by incubation for 30 min at room temperature with shaking (400 rpm). The plates were then frozen and stored overnight at −80 C. On the next day and after thawing the plates, 4 μl of a mixture of anti-Phospho-EGFR Cryptate and of anti-Phospho-EGFR-d2 antibody solutions prepared in the supplied detection buffer was added to each well. The lidded plates were then incubated for 4 h at room temperature before reading the fluorescence emission at 616 and 665 nm using an Envision reader (Perkin Elmer). Data was analyzed in similar fashion as above using the normalized ratio of the 665 to 616 signals multiplied by 10000.
(In general: Time-resolved FRET reads energy transfer from a long-lived donor to a nearby acceptor.)

Where a name gives a salt, the structure may show the parent alone.

As usually defined, the IC50 is the concentration that inhibits the measured activity by half. A lower IC50 goes with greater potency. In the case of “2-(4,7-Dichloro-6-(4-((3S,4S)-3-fluoro-1-(2-methoxyethyl)piperidin-4-yl)phenyl)-2H-indazol-2-yl)-2-((R)-6-fluoro-6,7-dihydro-5H-pyrrolo[1,2-c]imidazol-1-yl)-N-(thiazol-2-yl)acetamide OR 2-(4,7-dichloro-6-(4-((3R,4R)-3-fluoro-1-(2-methoxyethyl)piperidin-4-yl)phenyl)-2H-indazol-2-yl)-2-((R)-6-fluoro-6,7-dihydro-5H-pyrrolo[1,2-c]imidazol-1-yl)-N-(thiazol-2-yl)acetamide [Example 56]”, half-maximal inhibition (IC50) required 13 nM.

Regarding `CCN1CC[C@H](c2ccc(-c3cc(Cl)c4cn(C(C(=O)Nc5nccs5)c5ncn6c5C[C@@H](F)C6)nc4c3Cl)cc2)[C@@H](F)C1` (mixture of isomers) [Example 32, 2-(4,7-Dichloro-6-(4-(rac-(3R,4R)-1-ethyl-3-fluoropiperidin-4-yl)phenyl)-2H-indazol-2-yl)-2-((R)-6-fluoro-6,7-dihydro-5H-pyrrolo[1,2-c]imidazol-1-yl)-N-(thiazol-2-yl)acetamide], the IC50 came out at 4 nM.

On to `O=C(Nc1nccs1)C(c1ncn2c1C[C@@H](F)C2)n1cc2c(Cl)cc(-c3ccc(N4CCOCC4)nc3)c(Cl)c2n1` (mixture of isomers) [Example 29, 2-[4,7-Dichloro-6-(6-morpholin-4-ylpyridin-3-yl)indazol-2-yl]-2-[rac-(6R)-6-fluoro-6,7-dihydro-5H-pyrrolo[1,2-c]imidazol-1-yl]-N-(1,3-thiazol-2-yl)acetamide], for which the IC50 was found to be 6 nM.

The molecule `O=C(Nc1nccs1)C(c1ncn2c1C[C@@H](F)C2)n1cc2c(Cl)cc(-c3ccc(C4CCNCC4)cc3)c(Cl)c2n1` (mixture of isomers) [Example 30, 2-[4,7-Dichloro-6-(4-piperidin-4-ylphenyl)indazol-2-yl]-2-[rac-(6R)-6-fluoro-6,7-dihydro-5H-pyrrolo[1,2-c]imidazol-1-yl]-N-(1,3-thiazol-2-yl)acetamide hydrochloride] yielded an IC50 of 33 nM.

Take `CCN1CCC(c2ccc(-c3cc(Cl)c4cn(C(C(=O)Nc5nccs5)c5ncn6c5C[C@@H](F)C6)nc4c3Cl)cc2)CC1` (mixture of isomers) [Example 31, 2-[4,7-Dichloro-6-[4-(1-ethylpiperidin-4-yl)phenyl]indazol-2-yl]-2-[rac-(6R)-6-fluoro-6,7-dihydro-5H-pyrrolo[1,2-c]imidazol-1-yl]-N-(1,3-thiazol-2-yl)acetamide]: the concentration for half-maximal inhibition (IC50) is 10 nM.

On to `CN(C)CCOc1ccc(-c2cc(Cl)c3cn(C(C(=O)Nc4nccs4)c4ncn5c4C[C@@H](F)C5)nc3c2Cl)cc1` (mixture of isomers) [Example 34, 2-[4,7-Dichloro-6-[4-[2-(dimethylamino)ethoxy]phenyl]indazol-2-yl]-2-[rac-(6R)-6-fluoro-6,7-dihydro-5H-pyrrolo[1,2-c]imidazol-1-yl]-N-(1,3-thiazol-2-yl)acetamide], for which inhibition was half-maximal at 6 nM (IC50).

`N#Cc1cc(-c2cc(Cl)c3cn(C(C(=O)Nc4nccs4)c4ncn5c4C[C@@H](F)C5)nc3c2Cl)ccc1N1CCOCC1` (mixture of isomers) [Example 36, rac-2-(4,7-Dichloro-6-(3-cyano-4-morpholinophenyl)-2H-indazol-2-yl)-2-((R)-6-fluoro-6,7-dihydro-5H-pyrrolo[1,2-c]imidazol-1-yl)-N-(thiazol-2-yl)acetamide] returned an IC50 of 9 nM.

Take `CCN1CC[C@@H](c2ccc(-c3cc(Cl)c4cn(C(C(=O)Nc5nccs5)c5ncn6c5C[C@@H](F)C6)nc4c3Cl)cc2)[C@H](F)C1` (mixture of isomers) [Example 38, 2-[4,7-Dichloro-6-[4-[rac-(3S,4S)-1-ethyl-3-fluoro-4-piperidyl]phenyl]indazol-2-yl]-2-[(6R)-6-fluoro-6,7-dihydro-5H-pyrrolo[1,2-c]imidazol-1-yl]-N-thiazol-2-yl-acetamide OR 2-[4,7-Dichloro-6-[4-[rac-(3R,4R)-1-ethyl-3-fluoro-4-piperidyl]phenyl]indazol-2-yl]-2-[(6R)-6-fluoro-6,7-dihydro-5H-pyrrolo[1,2-c]imidazol-1-yl]-N-thiazol-2-yl-acetamide]: the IC50 was 10 nM.

Take `O=C(Nc1nccs1)C(c1ncn2c1C[C@@H](F)C2)n1cc2c(Cl)cc(-c3ccc(N4CCC(O)CC4)cc3)c(Cl)c2n1` (mixture of isomers) [Example 39, rac-2-(4,7-Dichloro-6-(4-(4-hydroxypiperidin-1-yl)phenyl)-2H-indazol-2-yl)-2-((R)-6-fluoro-6,7-dihydro-5H-pyrrolo[1,2-c]imidazol-1-yl)-N-(thiazol-2-yl)acetamide]: the IC50 came out at 4 nM.

Turning to `CN(C)CCN(C)c1ccc(-c2cc(Cl)c3cn(C(C(=O)Nc4nccs4)c4ncn5c4C[C@@H](F)C5)nc3c2Cl)cc1` (mixture of isomers) [Example 41, rac-2-(4,7-Dichloro-6-(4-((2-(dimethylamino)ethyl)(methyl)amino)phenyl)-2H-indazol-2-yl)-2-((R)-6-fluoro-6,7-dihydro-5H-pyrrolo[1,2-c]imidazol-1-yl)-N-(thiazol-2-yl)acetamide], the IC50 was 10 nM.

Molecule `O=C(Nc1nccs1)C(c1ncn2c1C[C@@H](F)C2)n1cc2c(Cl)cc(-c3ccc(CCCN4CCC(CO)CC4)cc3)c(Cl)c2n1` (mixture of isomers) [Example 47, rac-2-(4,7-Dichloro-6-(4-(3-(4-(hydroxymethyl)piperidin-1-yl)propyl)phenyl)-2H-indazol-2-yl)-2-((R)-6-fluoro-6,7-dihydro-5H-pyrrolo[1,2-c]imidazol-1-yl)-N-(thiazol-2-yl)acetamide] registered an IC50 of 8 nM.

In turn, `CN(C)Cc1ccc(-c2cc(Cl)c3cn(C(C(=O)Nc4nccs4)c4ncn5c4C[C@@H](F)C5)nc3c2Cl)cc1` (mixture of isomers) [Example 48, rac-2-(4,7-Dichloro-6-(4-((dimethylamino)methyl)phenyl)-2H-indazol-2-yl)-2-((R)-6-fluoro-6,7-dihydro-5H-pyrrolo[1,2-c]imidazol-1-yl)-N-(thiazol-2-yl)acetamide] came in with an IC50 of 8 nM.

`CN(C)Cc1ccc(-c2cc(Cl)c3cn(C(C(=O)Nc4nccs4)c4ncn5c4C[C@@H](F)C5)nc3c2Cl)cc1F` (mixture of isomers) [Example 49, rac-2-(4,7-Dichloro-6-(4-((dimethylamino)methyl)-3-fluorophenyl)-2H-indazol-2-yl)-2-((R)-6-fluoro-6,7-dihydro-5H-pyrrolo[1,2-c]imidazol-1-yl)-N-(thiazol-2-yl)acetamide] returned a 50% inhibitory concentration (IC50) of 8 nM.

Consider `O=C(Nc1nccs1)C(c1ncn2c1C[C@@H](F)C2)n1cc2c(Cl)cc(-c3ccc(C45CC(CN6CCC(CO)CC6)(C4)C5)cc3)c(Cl)c2n1` (mixture of isomers) [Example 50, rac-2-(4,7-Dichloro-6-(4-(3-((4-(hydroxymethyl)piperidin-1-yl)methyl)bicyclo[1.1.1]pentan-1-yl)phenyl)-2H-indazol-2-yl)-2-((R)-6-fluoro-6,7-dihydro-5H-pyrrolo[1,2-c]imidazol-1-yl)-N-(thiazol-2-yl)acetamide], for which the IC50 is 12 nM.

For the molecule `O=C(Nc1nccs1)C(c1ncn2c1C[C@@H](F)C2)n1cc2c(Cl)cc(-c3ccc(CCN4CCC(CO)CC4)cc3)c(Cl)c2n1` (mixture of isomers) [Example 51, rac-2-(4,7-Dichloro-6-(4-(2-(4-(hydroxymethyl)piperidin-1-yl)ethyl)phenyl)-2H-indazol-2-yl)-2-((R)-6-fluoro-6,7-dihydro-5H-pyrrolo[1,2-c]imidazol-1-yl)-N-(thiazol-2-yl)acetamide], the IC50 turned out to be 10 nM.
